Laboratory results reported in US20070092546A1, “Thiamin based insect repellant” (Violet Fire, LLC, priority 2005, published 2007).
Where a name gives a salt, the structure may show the parent alone. Read-outs that look alike come from different tables or passages of the source.

Legend:
[1] = test system: insects; conditions: stated without test data
Source text: Thiamin hydrochloride is soluble in water and glycerin and other polyhydric alcohols.

[2] = cited from earlier work
[3] = test system: mosquitoes and other biting insects; conditions: ingested doses of up to 100 mg/day for several weeks; cited from earlier work
[4] = 100 mg/day consumed over a number of days; cited from earlier work

| Molecule | insect repellant properties [1] | solubility ([2]; in organic solvents) | solubility ([2]; in water and glycerin and other polyhydric alcohols) | insect repellency on the human skin [3] | adverse effects of ingestion [4] |
| --- | --- | --- | --- | --- | --- |
| Cc1ncc(C[n+]2csc(CCO)c2C)c(N)n1 [Thiamin hydrochloride] | have insect repellant properties | not readily soluble | soluble | – | – |
| Cc1ncc(C[n+]2csc(CCO)c2C)c(N)n1 [thiamin, Thiamin] | – | – | – | will repel mosquitoes and other biting insects from the skin | can cause anaphylactic stock, allergic reactions and skin rashes |
| Thiamin mononitrate | have insect repellant properties | – | – | – | – |
